Laboratory results reported in DBAASP.
Values after ≈ are worked out from the molar mass of the structure shown. Blank lines part the entries; values can stand above or below the molecule they belong to.

Legend:
Assay in all cases: ≥ marks a high value that may be exact or a test limit, other limits are often not marked, values filed in µg/mL are converted to µM
Streptococcus mutans = system: Streptococcus mutans
[1] = system: Pseudomonas aeruginosa ATCC 27853
[2] = system: Staphylococcus aureus ATCC 25923
[3] = system: Pseudomonas aeruginosa CMCCB 10104
[4] = system: Candida albicans ATCC 2002
[5] = system: Escherichia coli DH5alpha
[6] = system: Escherichia coli ATCC 25922

Structure (SMILES): C[C@H](N)C(=O)N[C@@H](CCC(N)=O)C(=O)N[C@@H](C)C(=O)N[C@@H](C)C(=O)N[C@@H](Cc1cnc[nH]1)C(=O)N[C@@H](CCC(N)=O)C(=O)N[C@@H](C)C(=O)N[C@@H](C)C(=O)N[C@@H](Cc1cnc[nH]1)C(=O)N[C@@H](C)C(=O)N[C@@H](C)C(=O)N[C@@H](Cc1cnc[nH]1)C(=O)N[C@@H](CCC(N)=O)C(=O)N[C@@H](Cc1ccccc1)C(N)=O [AQAAHQAAHAAHQF]
- MIC (Streptococcus mutans): ≥ 85.7 µM

Structure (SMILES): CC[C@H](C)[C@H](NC(=O)[C@@H](NC(=O)[C@H](CC(=O)O)NC(=O)[C@H](CC(C)C)NC(=O)[C@H](CC(C)C)NC(=O)CN)[C@@H](C)O)C(=O)N[C@@H](CCCCN)C(=O)N[C@@H](CC(N)=O)C(=O)N[C@@H](CCSC)C(=O)N[C@@H](C)C(=O)N[C@@H](CC(C)C)C(=O)N[C@@H](CC(N)=O)C(=O)N[C@@H](C)C(=O)N[C@@H](C)C(=O)N[C@@H](CCCCN)C(=O)N[C@@H](CO)C(=O)N[C@@H](C)C(=O)NCC(=O)N[C@H](C(=O)N[C@@H](CO)C(=O)N[C@H](C(=O)N[C@@H](CC(C)C)C(=O)N[C@@H](CC(N)=O)C(=O)N[C@@H](CO)C(=O)N[C@@H](CC(C)C)C(=O)N[C@@H](CO)C(=O)N[C@H]1CSSC[C@@H](C(=O)O)NC(=O)[C@H]([C@@H](C)O)NC(=O)[C@H](CCCCN)NC(=O)[C@H](CO)NC(=O)[C@H](CC(=O)O)NC(=O)[C@H](CCCCN)NC1=O)C(C)C)C(C)C [GLLDTIKNMALNAAKSAGVSVLNSLSCKDSKTC]
- MIC [2]: 1.73 µM (≈ 5.8 µg/mL)
- MIC [3]: 3.46 µM (≈ 11.6 µg/mL)
- MIC [4]: 3.46 µM (≈ 11.6 µg/mL)
- MIC [6]: 1.73 µM (≈ 5.8 µg/mL)

Structure (SMILES): CSCC[C@H](NC(=O)[C@H](CCC(=O)O)NC(=O)[C@H](C)NC(=O)[C@H](C)NC(=O)[C@@H](NC(=O)CNC(=O)[C@H](C)NC(=O)[C@@H](NC(=O)[C@H](Cc1ccccc1)NC(=O)[C@H](C)NC(=O)[C@@H](N)CC(C)C)C(C)C)C(C)C)C(=O)N[C@@H](CCSC)C(=O)N[C@@H](CCC(N)=O)C(=O)N[C@@H](Cc1cnc[nH]1)C(=O)N[C@H](C(=O)N[C@@H](Cc1ccc(O)cc1)C(=O)N[C@H]1CSSC[C@@H](C(=O)O)NC(=O)[C@H](CCCCN)NC(=O)[C@H](CCCCN)NC(=O)[C@H](CO)NC(=O)[C@H](C)NC(=O)[C@H](C)NC1=O)C(C)C [LAFVAGVAAEMMQHVYCAASKKC]
- MIC [2]: 5.11 µM (≈ 12.4 µg/mL)
- MIC [3]: 5.11 µM (≈ 12.4 µg/mL)
- MIC [4]: 5.11 µM (≈ 12.4 µg/mL)
- MIC [6]: 2.55 µM (≈ 6.2 µg/mL)

Structure (SMILES): CC[C@H](C)[C@H](NC(=O)[C@H](C)NC(=O)[C@H](CC(C)C)NC(=O)[C@H](CC(N)=O)NC(=O)[C@H](CCCCN)NC(=O)[C@H](CC(C)C)NC(=O)[C@@H](NC(=O)[C@H](CC(=O)O)NC(=O)[C@H](CC(C)C)NC(=O)[C@H](Cc1ccccc1)NC(=O)[C@@H](N)CO)[C@@H](C)O)C(=O)N[C@@H](CO)C(=O)N[C@@H](C)C(=O)N[C@@H](C)C(=O)N[C@@H](CCCCN)C(=O)NCC(=O)N[C@@H](C)C(=O)NCC(=O)N[C@@H](CCC(N)=O)C(=O)N[C@@H](CO)C(=O)N[C@H](C(=O)N[C@@H](CC(C)C)C(=O)N[C@@H](CO)C(=O)N[C@H](C(=O)N[C@@H](CC(C)C)C(=O)N[C@@H](CO)C(=O)N[C@H]1CSSC[C@@H](C(=O)O)NC(=O)[C@H]([C@@H](C)O)NC(=O)[C@H](CCC(=O)O)NC(=O)[C@H](CO)NC(=O)[C@H](CC(C)C)NC(=O)[C@H](CCCCN)NC1=O)[C@@H](C)O)C(C)C [SFLDTLKNLAISAAKGAGQSVLSTLSCKLSETC]
- MIC [2]: 1.97 µM (≈ 6.6 µg/mL)
- MIC [3]: 1.97 µM (≈ 6.6 µg/mL)
- MIC [4]: 1.97 µM (≈ 6.6 µg/mL)
- MIC [6]: 3.93 µM (≈ 13.2 µg/mL)

Results, then the molecule that gave them:

- MIC [1]: 50 µM (≈ 108 µg/mL)
- MIC [2]: 0.742 µM (≈ 1.6 µg/mL)
- MIC [3]: 1.48 µM (≈ 3.2 µg/mL)
- MIC [4]: 0.742 µM (≈ 1.6 µg/mL)
- MIC [5]: ≥ 50 µM
- MIC [6]: 1.48 µM (≈ 3.2 µg/mL)
Structure (SMILES): CC[C@H](C)[C@H](NC(=O)[C@H](Cc1cnc[nH]1)NC(=O)[C@H](C)NC(=O)[C@H](CCSC)NC(=O)[C@H](CC(N)=O)NC(=O)[C@H](CCCCN)NC(=O)[C@H](CCCCN)NC(=O)[C@@H](NC(=O)[C@@H](NC(=O)[C@H](CCCCN)NC(=O)[C@H](C)NC(=O)[C@H](Cc1ccccc1)NC(=O)[C@H](CC(C)C)NC(=O)[C@H](CCCCN)NC(=O)[C@@H]1CCCN1C(=O)[C@H](CC(C)C)NC(=O)[C@@H](N)Cc1ccccc1)[C@@H](C)CC)[C@@H](C)O)C(=O)N[C@@H](CCCN=C(N)N)C(=O)O [FLPKLFAKITKKNMAHIR]

- MIC [2]: 0.349 µM (≈ 1.7 µg/mL)
- MIC [3]: 0.699 µM (≈ 3.4 µg/mL)
- MIC [4]: 0.349 µM (≈ 1.7 µg/mL)
- MIC [6]: 0.699 µM (≈ 3.4 µg/mL)
Structure (SMILES): CC[C@H](C)[C@H](NC(=O)CNC(=O)[C@H](CCCCN)NC(=O)CNC(=O)[C@H](C)NC(=O)[C@H](Cc1ccccc1)NC(=O)[C@H](CCCCN)NC(=O)[C@H](CO)NC(=O)[C@H](Cc1ccccc1)NC(=O)[C@H](CC(C)C)NC(=O)CN)C(=O)N[C@@H](CCCCN)C(=O)N[C@@H](CC(N)=O)C(=O)N[C@@H](Cc1ccccc1)C(=O)N[C@@H](CC(C)C)C(=O)N[C@H](C(=O)N[C@@H](CCCCN)C(=O)NCC(=O)N[C@H](C(=O)N[C@@H](CCCCN)C(=O)N[C@@H](Cc1cnc[nH]1)C(=O)N[C@H](C(=O)NCC(=O)N[C@@H](CCCCN)C(=O)N[C@@H](CCC(=O)O)C(=O)N[C@H](C(=O)NCC(=O)N[C@@H](CCSC)C(=O)N[C@@H](CC(=O)O)C(=O)N[C@H](C(=O)N[C@H](C(=O)N[C@@H](CCCN=C(N)N)C(=O)N[C@H](C(=O)NCC(=O)N[C@H](C(=O)N[C@@H](CC(=O)O)C(=O)N[C@H](C(=O)N[C@@H](C)C(=O)NCC(=O)N[C@H]1CSSC[C@@H](C(=O)O)NC(=O)[C@H](CCC(=O)O)NC(=O)CNC(=O)[C@H](CCCCN)NC(=O)[C@H]([C@@H](C)CC)NC(=O)[C@H](CCCCN)NC1=O)C(C)C)[C@@H](C)CC)[C@@H](C)O)[C@@H](C)CC)C(C)C)C(C)C)[C@@H](C)CC)C(C)C)[C@@H](C)CC [GLFSKFAGKGIKNFLIKGVKHIGKEVGMDVIRTGIDVAGCKIKGEC]

- MIC [2]: 5.57 µM (≈ 21.6 µg/mL)
- MIC [3]: 5.57 µM (≈ 21.6 µg/mL)
- MIC [4]: 2.78 µM (≈ 10.8 µg/mL)
- MIC [6]: 2.78 µM (≈ 10.8 µg/mL)
Structure (SMILES): CC[C@H](C)[C@H](NC(=O)[C@H](CC(C)C)NC(=O)[C@H](CCC(N)=O)NC(=O)[C@@H](NC(=O)[C@H](C)NC(=O)CNC(=O)[C@H](CCCCN)NC(=O)[C@@H](NC(=O)[C@H](CC(C)C)NC(=O)[C@@H](NC(=O)[C@H](Cc1ccccc1)NC(=O)[C@@H](NC(=O)CN)C(C)C)[C@@H](C)O)[C@@H](C)CC)[C@@H](C)O)C(=O)NCC(=O)N[C@@H](CCCCN)C(=O)N[C@H](C(=O)N[C@@H](CC(C)C)C(=O)NCC(=O)N[C@@H](CCCCN)C(=O)N[C@@H](CCC(=O)O)C(=O)N[C@@H](CC(C)C)C(=O)NCC(=O)N[C@@H](CCCCN)C(=O)N[C@H](C(=O)NCC(=O)N[C@@H](CC(C)C)C(=O)N[C@@H](CCC(=O)O)C(=O)N[C@@H](CC(C)C)C(=O)N[C@@H](CCSC)C(=O)N[C@@H](C)C(=O)N[C@H]1CSSC[C@@H](C(=O)O)NC(=O)[C@H](CCC(N)=O)NC(=O)[C@H](CC(N)=O)NC(=O)[C@H]([C@@H](C)O)NC(=O)[C@H]([C@@H](C)CC)NC(=O)[C@H](CCCCN)NC1=O)[C@@H](C)O)[C@@H](C)O [GVFTLIKGATQLIGKTLGKELGKTGLELMACKITNQC]

- MIC (Streptococcus mutans): ≥ 42.1 µM
Structure (SMILES): CC(C)C[C@H](NC(=O)[C@H](Cc1cnc[nH]1)NC(=O)[C@H](CCCCN)NC(=O)[C@H](Cc1ccccc1)NC(=O)[C@H](CCCN=C(N)N)NC(=O)[C@H](CCCCN)NC(=O)[C@H](CC(C)C)NC(=O)[C@H](CC(C)C)NC(=O)[C@@H](N)CCCN=C(N)N)C(=O)N[C@@H](Cc1ccccc1)C(=O)N[C@@H](CCCCN)C(=O)O [RLLKRFKHLFK]
